Assay results reported in patent US6596500B1, “Binding of retinoids to M6P/IGF-II receptor” (The General Hospital Corporation, priority 1998, dated 2003).

System: HL-60R cells
Assay: Growth and apoptosis of HL-60R cells overexpressing M6P/IGF2R
Type: cell-based, human
Settings: 1 μM RA; HL-60R cells transfected with M6P/IGF2R cDNA
Experimental: FIG. 9 is a graph showing the effect of RA treatment on growth (number of viable cells) of HL-60R cells overexpressing M6P/IGF2R protein and HL-60R controls. Open circles, vector control cells without RA treatment; closed circles, vector control cells with 1 μM RA treatment; open squares, overexpressing cells without RA treatment; closed squares overexpressing cells with 1 μM RA treatment.
We examined the M6P/IGF2R-mediated effects of RA in the absence of nuclear RA receptors, by using human cell line HL-60R, which lacks functional nuclear RA receptors. This cell line expresses low levels of M6P/IGF2R protein. We transfected HL-60R cells with a plasmid encoding human M6P/IGF2R, so they overexpressed M6P/IGF2R. Then we assessed their response to RA. […] Apoptosis was assayed using FITC-labeled annexin V staining and flow cytometry.

For `CC1=C(/C=C/C(C)=C/C=C/C(C)=C/C(=O)O)C(C)(C)CCC1` [RA, all-trans-retinoic acid], the “Apoptosis (FITC-annexin V staining, flow cytometry)” value was “significant increase in apoptosis” and the Growth rate was “remarkable reduction in growth rate”.
